Test results: patent publication US8084602B2, “Porphyrin derivatives and their use in photodynamic therapy” (Destiny Pharma Limited, priority 2002, dated 2011)

What was measured:
[1] = test system: Pseudomonas aeruginosa ATCC 25668; assay: Range of antimicrobial activity (CFU protocol); format: cell-based
Method: (§1) For the further investigation of the exemplary compounds (Table 2), the following protocol was adopted: • (i) Bacteria (S. aureus BAA-44 and E. coli 25922) were grown in brain heart infusion (BHI) broth until they reached the stationary phase of growth. • (ii) The cells were harvested by centrifugation (3000 g for 15 min) with a table centrifuge, washed with 10 mM PBS at pH 7.4 containing 2.7 mM KCl and 0.14 M NaCl and suspended in PBS at an optical density of 0.7 at 650 nm corresponding to 10^8-10^9 cells/ml. • (iii) The bacteria, at the desired cell density (˜10^8 cells/ml) were incubated for 5 min in the dark with various concentrations of the exemplary compounds. • (iv) At the end of the incubation period the cells were washed three times with PBS, suspended in PBS, transferred into a 96-well microtitre plate (200 μl/well) and illuminated for 15 min with the Waldmann light source (15.2 mW/cm^2; 13.7 J/cm^2). The cells were illuminated from the bottom of the plate laying it on the glass cover of the lamp. • (v) After illumination, cell survival was determined by plating serially diluted aliquots of treated and untreated (i.e. no exemplary compound or light present) cells onto brain heart agar (BHA) and counting the number of colonies after 18-24 h incubation at 37° C.
(§2) The antibacterial activity of Compound 10 was tested against a range of bacterial strains: • S. aureus ATCC BAA-44 (a methicillin resistant S. aureus) • Ps. aeruginosa ATCC 25668 • S. epidermidis ATCC 700565 • Streptococcus pyogenes ATCC 49117 • E. coli ATCC 25922

[2] = test system: Staphylococcus epidermidis ATCC 700565; assay: Range of antimicrobial activity (CFU protocol); format: cell-based
Method: as §1, §2

[3] = test system: Streptococcus pyogenes ATCC 49117; assay: Range of antimicrobial activity (CFU protocol); format: cell-based
Method: as §1, §2

[4] = test system: human dermal fibroblast (NHDF) cells; assay: Quenching studies using sodium azide and D2O; format: cell-based; conditions: after illumination
Method: Triangle/solid line: Compound 10+PBS buffer+light; Squares/solid line: Compound 10+D2O+light; Circles/solid line: Compound 10+sodium azide+light; Triangles/dotted line: Compound 10+PBS buffer w/o light; Squares/dotted line: Compound 10+D2O w/o light; Circles/dotted line: Compound 10+sodium azide w/o light. (n=3, mean±Std).
Quenching studies using D2O and azide were performed with Compound 10 and light against keratinocytes in vitro. In order to investigate whether phototoxicity of the test compound against NHDF, NHEK and bacteria follows the photo-oxidation type II, sodium azide, a physical quencher of singlet oxygen as well as D2O an enhancer of reactive oxygen species were (Lin et al., 1991, Cancer Res. 51:1109-1116; Moan et al., 1979, Brit. J. Cancer 39:398-407).

[5] = test system: intact and abraded rat skin; assay: Acute dermal toxicity test (OECD 402); format: in vivo; conditions: 3.2 mM topical formulation, 24 hours
Method: The compound was applied to both intact and abraded rat skin for 24 hours.

[6] = test system: Guinea Pig skin (intact and abraded); assay: Photo-toxicity test (OECD 406 based); format: in vivo
Method: Clinical and histological examination of the skin test sites was conducted at 24 and 72 hours post illumination in classical photo-toxicity testing fashion. Biopsies were not done from contiguous sites to prevent any interaction in case of suture. Gross findings were evaluated at the moment of the biopsy. Before giving a score to each endpoint (erythema, oedema and inflammation), data for each subject were compared to the data from the other animals and to control data. A score from 0 to 4 was given for each site and for each endpoint according to the Draize Scale (for inflammation, a scale similar to the Draize Scale was created after microscopic observation of all skin sections, comparing with normal skin and with findings of step-1). A mean score was then calculated for each animal and for each sampling point.

[7] = test system: Staphylococcus aureus BAA-44; assay: Emergence of bacterial resistance to PDT; format: cell-based; conditions: S. aureus ATCC BAA-44; ten subsequent photodynamic treatments
Method: The potential build up of resistance of the bacterial cells to the exemplary compounds of the invention was tested in the multi-drug resistant (including methicillin) gram positive bacterium Staphylococcus aureus BAA-44, using Compound 10 as the photodynamic agent. The survival of S. aureus BAA-44 after the second treatment was again compared to the survival of S. aureus BAA-44 cells that had not been treated with PDT. […] In an additional experiment, clones which had been exposed nine times to PDT treatment by the above methodology were treated for a tenth time and the results compared to the cell kill observed in a parallel experiment where naïve cultures (i.e. which had not been exposed to PDT) were subjected to PDT treatment under exactly the same conditions.
The results obtained from comparing cell kill contained from cultures that had been exposed to 10 consecutive PDT treatments with neïve cultures (i.e. which had not been exposed to PDT) are shown in FIG. 7. The survival was expressed as log N0/N, where N0 and N represent the number of CFU/ml of the untreated and treated cell suspensions.

[8] = Photostability (photobleaching); format: physicochemical; conditions: 30 minutes illumination
Description: A bespoke light source capable of delivering light of an appropriate wavelength (417 nm) was developed to activate the test compounds (Waldmann light source 236). […] It consists of a light box (493 mm length×278 mm width×93.3 mm height) where the samples to be tested are placed on the top surface of the light box and illuminated from below.
The photostability of the exemplary compounds was investigated using standard photodynamic procedures. […] The solution was illuminated for various periods: 10, 20 and 30 minutes. After each predetermined illumination period, the absorbance at 404 nm corresponding to the maximum absorption peak of the compound was measured. Parallel experiments were undertaken where the absorbance of Compound 10 solutions that had been kept in the dark for the same time periods as the illumination time periods were measured. Over the 30 minutes period of illumination a small loss in the absorbance value at 404 nm was observed (see FIG. 10A).
The susceptibility of the Compound 10 to photobleaching when subjected to a light at a higher fluence rate (150 mW/cm^2; i.e. ten times that used normally) was investigated. With this illumination system, the solution was kept in a quartz cuvette during illumination while an equivalent solution was kept in the dark.

With C[N+](C)(C)CCCOc1ccc(-c2c3nc(cc4ccc([nH]4)c(-c4ccc(OCCC[N+](C)(C)C)cc4)c4nc(cc5ccc2[nH]5)C=C4)C=C3)cc1.[Cl-].[Cl-] [Compound 10, 5,15-bis-[4-(3-Trimethylammonio-propyloxy)-phenyl]-porphyrin dichloride] the “Concentration of Compound 10 required to obtain a 3 log reduction in cells (μM)” value [1] was 5.0 μM, the “Concentration of Compound 10 required to obtain a 3 log reduction in cells (μM)” value [2] was 0.0025 μM and the “Concentration of Compound 10 required to obtain a 3 log reduction in cells (μM)” value [3] was 0.01 μM. For the same compound, the “cell viability on addition of D2O” value ([4]; D2O) was “dramatic decrease”, the “Cell killing in the presence of sodium azide” value ([4]; sodium azide (50 mM)) was “reduced” and the Histological toxicology [5] was “No Histological toxicology of any major organ (including the skin) was observed”. For the same compound, the “acute toxic or allergic effect” value [5] was “does not result in any acute toxic or allergic effect”, the clinical toxicology [5] was “no clinical toxicology was observed” and the photo-toxic potential ([6]; 32 μM topical formulation, 24 hours on intact and abraded skin, then 30 minute light exposure, examined 24 and 72 hours post illumination) was “no clinical signs or symptoms or histological findings that suggested any photo-toxic potential”. For the same compound, the “damage to the surface of the skin” value ([6]; 32 μM, in the absence of light) was “did not result in any damage to the surface of the skin”, the development of resistance [7] was “no appreciable development of resistance” and the “loss in the absorbance value at 404 nm” value ([8]; 10 μM in phosphate-buffered saline/ethanol, blue light 15 mW/cm^2) was “small loss”. The “reduction of absorbance caused by photobleaching” value ([8]; 10 μM, 150 mW/cm^2) was 15-20%.
